Molecular target: T1, human TLR9 (Homo sapiens, UniProt Q9NR96)
T1 construct: host or cells: HEK-Blue cells
T1 sequence (Q9NR96 26-1032): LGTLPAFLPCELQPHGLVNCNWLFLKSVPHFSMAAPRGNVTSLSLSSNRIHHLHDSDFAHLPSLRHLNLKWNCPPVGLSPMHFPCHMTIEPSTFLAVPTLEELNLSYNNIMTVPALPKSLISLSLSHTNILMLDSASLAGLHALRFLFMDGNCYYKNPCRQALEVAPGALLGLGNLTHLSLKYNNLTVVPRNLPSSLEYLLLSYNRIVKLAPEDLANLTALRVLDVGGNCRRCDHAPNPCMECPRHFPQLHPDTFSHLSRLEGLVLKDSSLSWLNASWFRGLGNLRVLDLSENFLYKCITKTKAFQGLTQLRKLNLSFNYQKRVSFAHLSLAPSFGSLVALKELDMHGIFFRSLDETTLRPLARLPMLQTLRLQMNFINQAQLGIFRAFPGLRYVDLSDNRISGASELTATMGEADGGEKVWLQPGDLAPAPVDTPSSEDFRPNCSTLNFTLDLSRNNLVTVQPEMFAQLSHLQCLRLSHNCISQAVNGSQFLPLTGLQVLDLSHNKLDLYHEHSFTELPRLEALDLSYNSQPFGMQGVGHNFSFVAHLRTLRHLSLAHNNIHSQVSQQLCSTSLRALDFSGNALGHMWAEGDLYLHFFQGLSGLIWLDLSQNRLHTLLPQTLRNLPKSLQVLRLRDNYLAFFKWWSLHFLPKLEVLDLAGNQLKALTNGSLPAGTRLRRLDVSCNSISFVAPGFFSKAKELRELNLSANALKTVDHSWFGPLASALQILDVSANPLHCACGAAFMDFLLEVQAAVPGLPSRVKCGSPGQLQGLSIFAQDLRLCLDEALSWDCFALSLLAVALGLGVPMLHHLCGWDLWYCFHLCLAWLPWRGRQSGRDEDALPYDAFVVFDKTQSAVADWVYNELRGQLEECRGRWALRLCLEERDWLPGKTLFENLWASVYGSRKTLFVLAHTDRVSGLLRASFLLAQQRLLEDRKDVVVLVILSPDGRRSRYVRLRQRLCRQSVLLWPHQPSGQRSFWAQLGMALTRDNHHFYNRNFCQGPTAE
Test: TLR9 inhibition reporter assay (HEK-Blue cells, SEAP reporter, ODN2006 stimulation)
Format: cell-based
Settings: HEK-Blue cells overexpressing human TLR9, ODN2006 5 nM
In short: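 HEK-Blue cells overexpressing human TLR7, TLR8 or TLR9 carry a SEAP reporter driven by NF-κB/AP-1 sites. Compounds (0.05 nM–50 μM) were preincubated 30 min at room temperature, then cells were stimulated with gardiquimod 7.5 μM (TLR7), R848 15.9 μM (TLR8) or ODN2006 5 nM (TLR9) for 22 h at 37 °C.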

| SMILES | IC50 [µM] |
| --- | --- |
| COc1ccc(-c2[nH]c3ccc(C4CCN(C(=O)CN5CCC[C@H](C(=O)N6CCN(C(C)C)CC6)C5)CC4)cc3c2C(C)C)cc1OC [Example 286, (S)-1-(4-(2-(3,4-dimethoxyphenyl)-3-isopropyl-1H-indol-5-yl)piperidin-1-yl)-2-(3-(4-isopropylpiperazine-1-carbonyl)piperidin-1-yl)ethan-1-one] | 0.603 |
| COc1ccc(-c2[nH]c3ccc(C4CCN(C(=O)CN5CCC[C@H](C(=O)NC6(CO)CCCC6)C5)CC4)cc3c2C(C)C)cc1OC [Example 296, (S)-1-(2-(4-(2-(3,4-dimethoxyphenyl)-3-isopropyl-1H-indol-5-yl)piperidin-1-yl)-2-oxoethyl)-N-(1-(hydroxymethyl)cyclopentyl)piperidine-3-carboxamide] | 3.03 |
| COc1ccc(-c2[nH]c3ccc(C4CCN(C(=O)CN[C@H](CO)CC(C)C)CC4)cc3c2C(C)C)cc1OC [Example 231, (S)-1-(4-(2-(3,4-dimethoxyphenyl)-3-isopropyl-1H-indol-5-yl)piperidin-1-yl)-2-((1-hydroxy-4-methylpentan-2-yl)amino)ethan-1-one] | 1.93 |
| COc1ccc(-c2[nH]c3ccc(C4CCN(C(=O)CNC5CCC(C(C)(C)O)CC5)CC4)cc3c2C(C)C)cc1OC (centres unmarked) [Example 245, 1-(4-(2-(3,4-dimethoxyphenyl)-3-isopropyl-1H-indol-5-yl)piperidin-1-yl)-2-((4-(2-hydroxypropan-2-yl)cyclohexyl)amino)ethan-1-one] | 1.14 |
| COc1ccc(-c2[nH]c3ccc(C4CCN(C(=O)CN5CCC[C@H](C(=O)N6CCN(Cc7ccc(Br)cc7)CC6)C5)CC4)cc3c2C(C)C)cc1OC [Example 294, (S)-2-(3-(4-(4-bromobenzyl)piperazine-1-carbonyl)piperidin-1-yl)-1-(4-(2-(3,4-dimethoxyphenyl)-3-isopropyl-1H-indol-5-yl)piperidin-1-yl)ethan-1-one] | 2.22 |
| COc1ccc(-c2[nH]c3ccc(C4CCN(C(=O)CN5CCC[C@H](C(=O)N6CC7CNCC7C6)C5)CC4)cc3c2C(C)C)cc1OC (some centres unmarked) [Example 299, 1-(4-(2-(3,4-dimethoxyphenyl)-3-isopropyl-1H-indol-5-yl)piperidin-1-yl)-2-((3 S)-3-(octahydropyrrolo[3,4-c]pyrrole-2-carbonyl)piperidin-1-yl)ethan-1-one] | 6.99 |
| CCC(CO)NCC(=O)N1CCC(c2ccc3[nH]c(-c4ccc(OC)c(OC)c4)c(C(C)C)c3c2)CC1 (centres unmarked) [Example 233, 1-(4-(2-(3,4-dimethoxyphenyl)-3-isopropyl-1H-indol-5-yl)piperidin-1-yl)-2-((1-hydroxybutan-2-yl)amino)ethan-1-one] | 0.877 |
| COc1ccc(-c2[nH]c3ccc(C4CCN(CC(=O)NC5CCN(C(C)C)CC5)CC4)cc3c2C(C)C)cc1OC [Example 273, 2-(4-(2-(3,4-dimethoxyphenyl)-3-isopropyl-1H-indol-5-yl)piperidin-1-yl)-N-(1-isopropylpiperidin-4-yl)acetamide] | 0.565 |
| COc1ccc(-c2[nH]c3ccc(C4CCN(C(=O)CN5CCC[C@H](C(=O)N(C)C(C)C)C5)CC4)cc3c2C(C)C)cc1OC [Example 288, (S)-1-(2-(4-(2-(3,4-dimethoxyphenyl)-3-isopropyl-1H-indol-5-yl)piperidin-1-yl)-2-oxoethyl)-N-isopropyl-N-methylpiperidine-3-carboxamide] | 0.633 |
| COc1ccc(-c2[nH]c3ccc(C4CCN(C(=O)CN5CCC[C@@H](C(=O)N6CCCC6)C5)CC4)cc3c2C(C)C)cc1OC [Example 303, (R)-1-(4-(2-(3,4-dimethoxyphenyl)-3-isopropyl-1H-indol-5-yl)piperidin-1-yl)-2-(3-(pyrrolidine-1-carbonyl)piperidin-1-yl)ethan-1-one] | 1.79 |
| CNCC(=O)N1CCC(c2ccc3[nH]c(-c4ccc(OC)c(OC)c4)c(C(C)C)c3c2)CC1 [Example 256, 1-(4-(2-(3,4-dimethoxyphenyl)-3-isopropyl-1H-indol-5-yl)piperidin-1-yl)-2-(methylamino)ethan-1-one] | 2.32 |

From patent publication US11180474B2 (BRISTOL-MYERS SQUIBB COMPANY, priority 2016, dated 2021)
